Test results: ChEMBL document CHEMBL5291721, “A preclinical secondary pharmacology resource illuminates target-adverse drug reaction associations of marketed drugs” (Nat Commun, 2023)

What was measured:
[1] = target: Prostaglandin G/H synthase 1 (Homo sapiens, UniProt P23219); format: functional
[2] = target: T1, Alpha-1A adrenergic receptor (Homo sapiens, UniProt P35348); format: functional, cell-based
T1 sequence (P35348 whole entry): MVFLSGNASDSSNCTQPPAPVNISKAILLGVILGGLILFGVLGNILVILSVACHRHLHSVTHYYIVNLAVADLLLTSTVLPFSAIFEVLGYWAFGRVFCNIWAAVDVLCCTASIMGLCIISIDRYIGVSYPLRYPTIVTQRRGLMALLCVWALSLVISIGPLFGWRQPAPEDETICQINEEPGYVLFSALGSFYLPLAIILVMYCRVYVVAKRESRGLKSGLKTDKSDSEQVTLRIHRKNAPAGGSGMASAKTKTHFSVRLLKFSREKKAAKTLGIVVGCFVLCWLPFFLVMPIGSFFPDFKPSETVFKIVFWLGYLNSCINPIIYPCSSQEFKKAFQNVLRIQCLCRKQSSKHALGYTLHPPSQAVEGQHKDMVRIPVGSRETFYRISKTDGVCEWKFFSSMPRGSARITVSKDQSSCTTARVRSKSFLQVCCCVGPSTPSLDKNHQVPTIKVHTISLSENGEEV

[3] = target: D(3) dopamine receptor (Homo sapiens, UniProt P35462)
[4] = target: cGMP-inhibited 3',5'-cyclic phosphodiesterase 3A (Homo sapiens, UniProt Q14432); format: functional
[5] = target: T2, Amine oxidase [flavin-containing] A (Homo sapiens, UniProt P21397); format: functional
T2 sequence (P21397 whole entry): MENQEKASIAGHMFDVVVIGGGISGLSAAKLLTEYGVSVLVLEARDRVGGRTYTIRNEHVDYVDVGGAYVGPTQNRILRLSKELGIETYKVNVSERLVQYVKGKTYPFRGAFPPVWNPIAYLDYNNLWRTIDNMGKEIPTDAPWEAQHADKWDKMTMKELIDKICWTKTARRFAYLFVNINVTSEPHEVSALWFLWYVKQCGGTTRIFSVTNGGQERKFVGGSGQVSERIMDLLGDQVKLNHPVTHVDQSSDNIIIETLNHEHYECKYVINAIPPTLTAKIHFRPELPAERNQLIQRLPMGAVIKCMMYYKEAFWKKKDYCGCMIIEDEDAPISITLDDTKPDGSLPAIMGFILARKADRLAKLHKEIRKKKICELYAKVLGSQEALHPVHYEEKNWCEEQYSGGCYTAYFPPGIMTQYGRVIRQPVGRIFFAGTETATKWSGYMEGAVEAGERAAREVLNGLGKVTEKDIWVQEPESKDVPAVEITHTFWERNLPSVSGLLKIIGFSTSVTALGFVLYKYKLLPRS

[6] = target: D(1A) dopamine receptor (Homo sapiens, UniProt P21728)
[7] = target: Prothrombin (Homo sapiens, UniProt P00734); format: functional
[8] = target: T3, Neuropeptide Y receptor type 1 (Homo sapiens, UniProt P25929)
T3 sequence (P25929 whole entry): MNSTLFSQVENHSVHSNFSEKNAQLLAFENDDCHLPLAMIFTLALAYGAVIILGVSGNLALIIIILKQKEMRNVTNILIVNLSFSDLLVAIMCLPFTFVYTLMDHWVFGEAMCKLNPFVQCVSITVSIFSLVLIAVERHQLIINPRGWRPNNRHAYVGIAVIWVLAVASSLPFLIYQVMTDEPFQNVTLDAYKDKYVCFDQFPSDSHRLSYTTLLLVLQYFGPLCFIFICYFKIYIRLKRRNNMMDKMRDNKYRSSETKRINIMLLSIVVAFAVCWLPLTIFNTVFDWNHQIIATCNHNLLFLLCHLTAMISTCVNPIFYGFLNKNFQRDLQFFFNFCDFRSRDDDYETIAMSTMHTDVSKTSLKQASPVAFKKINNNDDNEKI

[9] = target: T4, Cannabinoid receptor 1 (Homo sapiens, UniProt P21554)
[10] = target: T5, Muscarinic acetylcholine receptor M2 (Homo sapiens, UniProt P08172); format: functional, cell-based
T5 sequence (P08172 whole entry): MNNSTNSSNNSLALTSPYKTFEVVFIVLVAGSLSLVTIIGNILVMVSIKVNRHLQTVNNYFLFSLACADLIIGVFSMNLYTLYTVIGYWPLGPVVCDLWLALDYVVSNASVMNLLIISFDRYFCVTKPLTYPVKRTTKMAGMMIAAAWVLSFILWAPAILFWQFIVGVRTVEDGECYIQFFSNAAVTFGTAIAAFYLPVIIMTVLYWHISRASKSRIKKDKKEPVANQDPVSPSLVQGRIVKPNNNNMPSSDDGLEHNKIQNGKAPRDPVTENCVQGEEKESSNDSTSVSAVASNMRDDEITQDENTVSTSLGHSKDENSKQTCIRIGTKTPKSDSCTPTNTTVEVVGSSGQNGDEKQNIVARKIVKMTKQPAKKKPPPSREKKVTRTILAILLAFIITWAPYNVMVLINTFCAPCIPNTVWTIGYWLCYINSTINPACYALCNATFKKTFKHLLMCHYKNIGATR

[11] = target: Sodium-dependent serotonin transporter (Homo sapiens, UniProt P31645)
[12] = target: T6, B2 bradykinin receptor (Homo sapiens, UniProt P30411)
T6 sequence (P30411 whole entry): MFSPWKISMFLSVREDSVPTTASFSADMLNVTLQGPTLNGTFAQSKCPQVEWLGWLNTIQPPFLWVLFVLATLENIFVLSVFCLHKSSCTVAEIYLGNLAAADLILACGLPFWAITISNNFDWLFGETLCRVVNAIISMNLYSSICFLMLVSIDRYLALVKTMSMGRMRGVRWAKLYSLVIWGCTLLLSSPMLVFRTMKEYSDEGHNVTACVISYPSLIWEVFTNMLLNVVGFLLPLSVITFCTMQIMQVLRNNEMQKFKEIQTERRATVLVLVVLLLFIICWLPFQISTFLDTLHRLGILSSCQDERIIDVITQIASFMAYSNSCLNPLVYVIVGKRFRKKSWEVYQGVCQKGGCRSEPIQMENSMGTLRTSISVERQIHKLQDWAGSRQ

[13] = target: Gamma-aminobutyric acid receptor subunit alpha-1 (Rattus norvegicus, UniProt P62813)
[14] = target: T4, Cannabinoid receptor 1; format: functional, cell-based
Further: assay procedure not described here.

Sequence of Prostaglandin G/H synthase 1 (P23219 whole entry): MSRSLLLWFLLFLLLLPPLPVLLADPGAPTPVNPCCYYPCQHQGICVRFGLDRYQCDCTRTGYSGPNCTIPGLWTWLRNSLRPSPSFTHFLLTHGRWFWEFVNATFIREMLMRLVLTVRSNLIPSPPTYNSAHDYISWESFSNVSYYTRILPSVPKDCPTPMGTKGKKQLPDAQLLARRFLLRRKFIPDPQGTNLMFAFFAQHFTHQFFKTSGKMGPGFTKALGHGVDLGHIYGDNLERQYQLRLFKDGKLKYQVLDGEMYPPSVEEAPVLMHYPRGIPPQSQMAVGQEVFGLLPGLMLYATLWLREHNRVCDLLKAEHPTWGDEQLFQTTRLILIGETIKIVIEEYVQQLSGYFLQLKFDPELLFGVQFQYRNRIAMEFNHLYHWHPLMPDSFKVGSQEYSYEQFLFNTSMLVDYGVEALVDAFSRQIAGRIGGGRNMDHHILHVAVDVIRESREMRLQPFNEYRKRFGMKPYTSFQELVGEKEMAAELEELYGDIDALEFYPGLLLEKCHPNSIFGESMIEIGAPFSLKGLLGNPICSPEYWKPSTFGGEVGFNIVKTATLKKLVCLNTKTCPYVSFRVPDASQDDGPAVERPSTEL
Sequence of D(3) dopamine receptor (P35462 whole entry): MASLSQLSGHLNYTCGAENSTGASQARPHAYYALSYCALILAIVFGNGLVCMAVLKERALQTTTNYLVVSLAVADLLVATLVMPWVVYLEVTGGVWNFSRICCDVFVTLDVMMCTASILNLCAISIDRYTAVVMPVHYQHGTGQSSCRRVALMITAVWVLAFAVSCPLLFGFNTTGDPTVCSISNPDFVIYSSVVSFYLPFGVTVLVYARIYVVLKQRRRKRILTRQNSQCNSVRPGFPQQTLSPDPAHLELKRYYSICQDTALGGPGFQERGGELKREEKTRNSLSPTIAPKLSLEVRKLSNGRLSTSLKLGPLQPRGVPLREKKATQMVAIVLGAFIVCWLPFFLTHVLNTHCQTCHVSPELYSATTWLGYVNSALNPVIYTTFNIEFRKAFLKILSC
Sequence of D(1A) dopamine receptor (P21728 whole entry): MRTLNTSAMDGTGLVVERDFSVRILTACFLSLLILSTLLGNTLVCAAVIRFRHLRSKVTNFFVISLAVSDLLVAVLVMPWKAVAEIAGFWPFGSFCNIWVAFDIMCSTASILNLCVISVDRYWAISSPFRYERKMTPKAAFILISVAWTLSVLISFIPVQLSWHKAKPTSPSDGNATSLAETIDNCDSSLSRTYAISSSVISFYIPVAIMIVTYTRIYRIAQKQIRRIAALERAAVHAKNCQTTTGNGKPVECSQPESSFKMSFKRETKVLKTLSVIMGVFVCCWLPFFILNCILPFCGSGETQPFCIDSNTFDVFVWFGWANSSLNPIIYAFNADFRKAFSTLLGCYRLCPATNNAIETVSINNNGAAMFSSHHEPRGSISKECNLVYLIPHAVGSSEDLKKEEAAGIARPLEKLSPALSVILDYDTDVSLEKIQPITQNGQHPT
Sequence of Sodium-dependent serotonin transporter (P31645 whole entry): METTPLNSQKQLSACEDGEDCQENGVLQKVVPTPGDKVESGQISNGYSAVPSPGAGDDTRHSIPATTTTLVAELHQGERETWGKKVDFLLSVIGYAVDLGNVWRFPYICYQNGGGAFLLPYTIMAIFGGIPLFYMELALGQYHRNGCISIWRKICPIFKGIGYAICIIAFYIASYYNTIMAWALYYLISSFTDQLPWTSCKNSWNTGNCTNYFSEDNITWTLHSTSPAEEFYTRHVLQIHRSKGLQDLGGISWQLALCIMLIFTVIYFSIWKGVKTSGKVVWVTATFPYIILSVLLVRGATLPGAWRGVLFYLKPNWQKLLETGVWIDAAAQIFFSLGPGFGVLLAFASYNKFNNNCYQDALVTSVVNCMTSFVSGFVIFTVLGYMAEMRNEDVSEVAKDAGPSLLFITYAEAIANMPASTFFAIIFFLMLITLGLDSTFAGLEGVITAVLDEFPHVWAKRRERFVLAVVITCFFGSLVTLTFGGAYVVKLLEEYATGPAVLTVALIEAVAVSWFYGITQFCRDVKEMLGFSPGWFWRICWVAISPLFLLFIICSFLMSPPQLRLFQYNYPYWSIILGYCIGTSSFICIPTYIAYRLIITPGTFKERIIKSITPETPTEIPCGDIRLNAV
T4 sequence (P21554 whole entry): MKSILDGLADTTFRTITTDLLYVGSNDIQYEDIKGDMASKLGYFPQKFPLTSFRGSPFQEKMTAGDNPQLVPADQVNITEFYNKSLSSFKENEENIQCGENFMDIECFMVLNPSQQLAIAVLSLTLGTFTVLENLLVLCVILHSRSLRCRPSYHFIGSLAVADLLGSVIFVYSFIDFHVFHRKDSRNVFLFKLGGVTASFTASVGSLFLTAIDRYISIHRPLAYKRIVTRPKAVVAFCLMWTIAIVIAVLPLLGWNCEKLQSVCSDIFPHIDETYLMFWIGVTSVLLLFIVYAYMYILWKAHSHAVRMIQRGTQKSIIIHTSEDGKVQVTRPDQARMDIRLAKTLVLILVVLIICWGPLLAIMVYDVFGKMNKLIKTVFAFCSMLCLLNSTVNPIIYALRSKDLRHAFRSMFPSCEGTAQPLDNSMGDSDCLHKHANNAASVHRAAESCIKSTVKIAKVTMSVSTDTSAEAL
Sequence of cGMP-inhibited 3',5'-cyclic phosphodiesterase 3A (Q14432 whole entry): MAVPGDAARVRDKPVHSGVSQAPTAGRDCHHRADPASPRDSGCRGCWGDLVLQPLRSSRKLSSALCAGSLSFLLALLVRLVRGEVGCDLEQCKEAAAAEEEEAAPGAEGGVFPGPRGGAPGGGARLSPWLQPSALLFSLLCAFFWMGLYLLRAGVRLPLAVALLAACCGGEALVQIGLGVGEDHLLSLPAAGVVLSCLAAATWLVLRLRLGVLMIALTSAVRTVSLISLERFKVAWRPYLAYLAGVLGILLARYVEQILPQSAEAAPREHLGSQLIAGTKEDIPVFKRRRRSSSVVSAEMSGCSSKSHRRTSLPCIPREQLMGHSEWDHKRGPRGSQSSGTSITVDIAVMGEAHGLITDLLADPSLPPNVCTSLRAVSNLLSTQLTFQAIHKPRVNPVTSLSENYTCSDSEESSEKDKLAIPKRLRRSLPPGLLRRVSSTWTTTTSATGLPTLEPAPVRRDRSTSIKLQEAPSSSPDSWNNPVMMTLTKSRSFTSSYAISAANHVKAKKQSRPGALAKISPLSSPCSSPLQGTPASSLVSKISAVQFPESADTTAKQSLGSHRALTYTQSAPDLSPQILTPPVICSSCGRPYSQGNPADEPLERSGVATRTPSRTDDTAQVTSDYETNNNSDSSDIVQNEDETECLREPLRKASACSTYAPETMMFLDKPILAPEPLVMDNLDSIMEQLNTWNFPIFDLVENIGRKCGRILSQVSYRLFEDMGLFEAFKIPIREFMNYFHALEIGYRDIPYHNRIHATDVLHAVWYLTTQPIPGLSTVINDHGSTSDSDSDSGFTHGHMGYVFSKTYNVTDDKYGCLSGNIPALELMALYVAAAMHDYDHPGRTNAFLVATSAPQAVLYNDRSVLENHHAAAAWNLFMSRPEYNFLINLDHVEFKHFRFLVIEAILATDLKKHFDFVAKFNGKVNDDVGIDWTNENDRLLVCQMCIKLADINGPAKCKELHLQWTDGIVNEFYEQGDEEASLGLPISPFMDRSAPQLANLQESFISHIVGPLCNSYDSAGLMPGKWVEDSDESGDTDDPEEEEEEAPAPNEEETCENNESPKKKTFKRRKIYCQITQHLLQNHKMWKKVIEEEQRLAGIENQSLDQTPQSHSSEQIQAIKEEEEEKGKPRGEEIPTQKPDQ
Sequence of Gamma-aminobutyric acid receptor subunit alpha-1 (P62813 whole entry): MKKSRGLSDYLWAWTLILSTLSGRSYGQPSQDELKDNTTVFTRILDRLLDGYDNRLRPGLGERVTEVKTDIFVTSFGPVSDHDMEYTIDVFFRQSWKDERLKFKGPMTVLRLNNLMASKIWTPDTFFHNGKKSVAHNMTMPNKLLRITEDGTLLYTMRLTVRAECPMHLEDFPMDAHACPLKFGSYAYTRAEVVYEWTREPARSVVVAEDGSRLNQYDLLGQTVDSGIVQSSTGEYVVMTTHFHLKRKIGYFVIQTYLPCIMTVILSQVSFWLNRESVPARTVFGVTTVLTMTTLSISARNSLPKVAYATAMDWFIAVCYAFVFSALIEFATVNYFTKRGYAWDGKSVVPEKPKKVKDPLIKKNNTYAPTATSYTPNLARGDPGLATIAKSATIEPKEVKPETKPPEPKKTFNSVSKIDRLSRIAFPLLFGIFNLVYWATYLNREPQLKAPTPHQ

Compound	AC50 [1] [µM]	AC50 [2] [µM]	AC50 [3] [µM]	AC50 [4] [µM]	AC50 [5] [µM]	AC50 [6] [µM]	AC50 [7] [µM]	AC50 [8] [µM]	AC50 [9] [µM]	AC50 [10] [µM]	AC50 [11] [µM]	AC50 [12] [µM]	AC50 [13] [µM]	AC50 [14] [µM]
CC(=O)OC[C@H]1O[C@@H](n2ccc(=O)[nH]c2=O)[C@H](OC(C)=O)[C@@H]1OC(C)=O [URIDINE TRIACETATE]	> 30	> 30	> 30	> 30	> 30	> 30	> 30	–	–	–	–	–	–	–
COc1ccc2c(c1)C(=O)N(CCc1ccc(S(=O)(=O)NC(=O)NC3CCCCC3)cc1)C(=O)C2(C)C [GLIQUIDONE]	–	–	–	–	–	–	–	> 30	> 30	> 30	> 30	> 30	> 30	–
CN(C)C(=O)Oc1ccc[n+](C)c1 [PYRIDOSTIGMINE]	> 30	> 30	> 30	> 30	> 30	> 30	> 30	–	–	–	–	–	–	–
CC(=O)c1ccc2c(c1)N(CCCN1CCN(CCO)CC1)c1ccccc1S2 [ACETOPHENAZINE]	–	–	–	–	–	–	–	–	–	> 10	17	–	–	> 30
NC(=O)c1ncn([C@@H]2O[C@H](CO)[C@@H](O)[C@H]2O)c1O [MIZORIBINE]	–	–	–	–	–	–	–	> 30	–	–	> 30	> 30	–	> 30
CCO/N=C(\C(=O)N[C@@H]1C(=O)N2C(C(=O)[O-])=C(Sc3nc(-c4cc[n+](C)cc4)cs3)CS[C@H]12)c1nsc(N)n1 [CEFTAROLINE]	> 30	> 30	> 30	> 30	> 30	> 30	> 30	–	–	–	–	–	–	–
CCOC(=O)N[C@@H]1CC[C@@H]2[C@@H](C1)C[C@H]1C(=O)O[C@H](C)[C@H]1[C@H]2/C=C/c1ccc(-c2cccc(F)c2)cn1 [VORAPAXAR]	> 30	> 30	> 30	> 30	> 30	> 30	> 30	–	–	–	–	–	–	–
CC(O)CO (centres undefined) [PROPYLENE GLYCOL]	> 30	> 30	> 30	> 30	> 30	> 30	> 30	–	–	–	–	–	–	–
OC[C@@H](O)[C@@H](O)[C@H](O)[C@H](O)CO [MANNITOL]	> 30	> 30	> 30	> 30	> 30	> 30	> 30	–	–	–	–	–	–	–
COc1cc2c(cc1OC)C(=O)C(CC1CCN(Cc3ccccc3)CC1)C2 (centres undefined) [DONEPEZIL]	> 30	–	–	> 30	–	> 30	> 30	> 30	> 10	–	> 30	> 30	> 10	> 30
O=C(NC[C@H]1CN(c2ccc(N3CCOCC3=O)cc2)C(=O)O1)c1ccc(Cl)s1 [RIVAROXABAN]	> 30	> 30	> 30	> 30	> 30	> 30	–	–	–	> 30	> 30	–	–	> 30
